Results: patent US20250275928A1, “NANOPARTICLE-BASED ABUSE-DETERRENT FORMULATIONS AND METHODS OF MAKING AND USING” (Purdue Research Foundation, priority 2021, published 2025)
In brackets after ≈: the same amount, converted by molar mass.

Key:
[1] = Thermal stability of thebaine (TGA, heating); format: physicochemical
[2] = Dissolution in simulated gastric fluid; conditions: after 12 and 24 h
[3] = Equilibrium solubility of thebaine in ethanol; format: physicochemical; conditions: organic solvent or mixture, thermodynamic from solid
Procedure: Chemical extractability of thebaine, a model opioid drug, as a mixture with a non-gel forming excipient, Avicel pH 102, or selected gel-forming polymers, was tested using absolute ethanol. […] Physical mixtures of thebaine (600 μg) with 150 mg Avicel or Avicel with selected polymers (80 mg XG, 20 mg XG+30 mg HEC, or 20 mg XG+60 mg CS) mg) were extracted in 1 mL of absolute ethanol for 1 h. Free thebaine without any excipients was also tested for comparison.

[4] = Chemical extractability from nanocapsules by household solvents

COC1=CC=C2[C@H]3Cc4ccc(OC)c5c4[C@@]2(CCN3C)[C@H]1O5 [thebaine]
drug that withstood heating ([1]; 180° C. for 10 min, drug alone): 86.9%
temperature at which decomposition began (TGA) ([1]; thermogravimetric analysis): around 200 °C
stability in SGF [2]: degraded
solubility thermodynamic at 24 h ([3]; in 24 h): 10.4 mg/mL (≈ 33.4 mM)
solubility thermodynamic at 72 h ([3]; in 72 h): 10.5 mg/mL (≈ 33.7 mM)
solubility in household solvents ([4]; all tested solvents except for 0.9% NaCl and 0.1 M NaOH): soluble
dissolution in household solvents ([4]; most solvents at equivalent concentrations): dissolves completely
